System: skin
Assay: Affymetrix microarray of skin, DBP-4 hr and analogs vs. untreated; gene selection by log-2 fold change, Wilcoxon, Kendall tau (Tables 8, 9)
Type: in vivo, mouse
Conditions: for Wilcoxon: DBP-4 hr vs. untreated, selected by p-value; for Kendall: selected by Kendall tau, expression vs. output
[1] = gene 1500032L24Rik NM_026914_at
[2] = gene 2210016L21Rik NM_028211_at
[3] = gene 4931408A02Rik NM_027627_at
[4] = gene 4933407C03Rik NM_028941_at
[5] = gene 5730494N06Rik NM_027478_at

**Q.** Which Wilcoxon [1] does the source give for `CCCCOC(=O)c1ccccc1C(=O)OCCCC` [DBP, dibutylphthalate] here?
**A.** Its Wilcoxon is “No”.

**Q.** What about the Kendall [1] of the same compound?
**A.** Its Kendall is “Yes”.

**Q.** What about the Wilcoxon [2] of the same compound?
**A.** The Wilcoxon was “No”.

**Q.** What about the Kendall [2] of the same compound?
**A.** The Kendall was “Yes”.

**Q.** What about the Wilcoxon [3] of the same compound?
**A.** Its Wilcoxon is “No”.

**Q.** What about the Kendall [3] of the same compound?
**A.** Its Kendall is “Yes”.

**Q.** What about the Wilcoxon [4] of the same compound?
**A.** The Wilcoxon was “No”.

**Q.** What about the Kendall [4] of the same compound?
**A.** Its Kendall is “Yes”.

**Q.** What about the Wilcoxon [5] of the same compound?
**A.** Its Wilcoxon is “No”.

**Q.** And the Kendall [5]?
**A.** The Kendall was “Yes”.

**Q.** What about the Wilcoxon (gene Ankrd24 NM_027480_at) of the same compound?
**A.** The Wilcoxon was “No”.

**Q.** And the Kendall (gene Ankrd24 NM_027480_at)?
**A.** The Kendall was “Yes”.

**Q.** And the Wilcoxon (gene Cby1 NM_028634_at)?
**A.** Its Wilcoxon is “No”.

**Q.** And the Kendall (gene Cby1 NM_028634_at)?
**A.** The Kendall was “Yes”.

**Q.** What about the Wilcoxon (gene Ccdc123 NM_028120_at) of the same compound?
**A.** The Wilcoxon was “No”.

**Q.** What about the Kendall (gene Ccdc123 NM_028120_at) of the same compound?
**A.** Its Kendall is “Yes”.

**Q.** What about the Wilcoxon (gene Cdc42ep1 NM_027219_at) of the same compound?
**A.** Its Wilcoxon is “No”.

**Q.** What about the Kendall (gene Cdc42ep1 NM_027219_at) of the same compound?
**A.** Its Kendall is “Yes”.

**Q.** And the Wilcoxon (gene Cdca4 NM_028023_at)?
**A.** Its Wilcoxon is “No”.

**Q.** And the Kendall (gene Cdca4 NM_028023_at)?
**A.** The Kendall was “Yes”.

**Q.** And the Wilcoxon (gene Cenpv NM_028448_at)?
**A.** Its Wilcoxon is “No”.

**Q.** And the Kendall (gene Cenpv NM_028448_at)?
**A.** The Kendall was “Yes”.

**Q.** And the Wilcoxon (gene Chst14 NM_028117_at)?
**A.** Its Wilcoxon is “No”.

**Q.** What about the Kendall (gene Chst14 NM_028117_at) of the same compound?
**A.** The Kendall was “Yes”.

**Q.** What about the Wilcoxon (gene Cnot8 NM_026949_at) of the same compound?
**A.** Its Wilcoxon is “No”.

**Q.** And the Kendall (gene Cnot8 NM_026949_at)?
**A.** The Kendall was “Yes”.

**Q.** What about the Wilcoxon (gene Ebpl NM_026598_at) of the same compound?
**A.** The Wilcoxon was “No”.

**Q.** And the Kendall (gene Ebpl NM_026598_at)?
**A.** The Kendall was “Yes”.

**Q.** And the Wilcoxon (gene Ict1 NM_026729_at)?
**A.** The Wilcoxon was “No”.

**Q.** And the Kendall (gene Ict1 NM_026729_at)?
**A.** Its Kendall is “Yes”.

**Q.** And the Wilcoxon (gene Ift80 NM_026641_at)?
**A.** The Wilcoxon was “No”.

**Q.** And the Kendall (gene Ift80 NM_026641_at)?
**A.** Its Kendall is “Yes”.

**Q.** And the Wilcoxon (gene Lrrfip2 NM_027742_at)?
**A.** The Wilcoxon was “No”.

**Q.** What about the Kendall (gene Lrrfip2 NM_027742_at) of the same compound?
**A.** Its Kendall is “Yes”.

**Q.** And the Wilcoxon (gene Med23 NM_027347_at)?
**A.** Its Wilcoxon is “No”.

**Q.** And the Kendall (gene Med23 NM_027347_at)?
**A.** Its Kendall is “Yes”.

**Q.** And the Wilcoxon (gene Mlh1 NM_026810_at)?
**A.** Its Wilcoxon is “No”.

**Q.** What about the Kendall (gene Mlh1 NM_026810_at) of the same compound?
**A.** Its Kendall is “Yes”.

**Q.** What about the Wilcoxon (gene Mterfd3 NM_028832_at) of the same compound?
**A.** Its Wilcoxon is “No”.

**Q.** And the Kendall (gene Mterfd3 NM_028832_at)?
**A.** The Kendall was “Yes”.

**Q.** And the Wilcoxon (gene Rnf135 NM_028019_at)?
**A.** The Wilcoxon was “No”.

**Q.** And the Kendall (gene Rnf135 NM_028019_at)?
**A.** The Kendall was “Yes”.

**Q.** What about the Wilcoxon (gene Rnf157 NM_027258_at) of the same compound?
**A.** Its Wilcoxon is “No”.

**Q.** And the Kendall (gene Rnf157 NM_027258_at)?
**A.** The Kendall was “Yes”.

**Q.** And the Wilcoxon (gene Rrp1b NM_028244_at)?
**A.** Its Wilcoxon is “No”.

**Q.** What about the Kendall (gene Rrp1b NM_028244_at) of the same compound?
**A.** Its Kendall is “Yes”.

**Q.** What about the Wilcoxon (gene Slc25a35 NM_028048_at) of the same compound?
**A.** The Wilcoxon was “No”.

**Q.** And the Kendall (gene Slc25a35 NM_028048_at)?
**A.** Its Kendall is “Yes”.

**Q.** What about the Wilcoxon (gene Tmem55a NM_028264_at) of the same compound?
**A.** The Wilcoxon was “No”.

**Q.** And the Kendall (gene Tmem55a NM_028264_at)?
**A.** Its Kendall is “Yes”.

**Q.** And the Wilcoxon (gene Tmem80 NM_027797_at)?
**A.** The Wilcoxon was “No”.

**Q.** What about the Kendall (gene Tmem80 NM_027797_at) of the same compound?
**A.** The Kendall was “Yes”.

**Q.** What about the Wilcoxon (gene Tmtc4 NM_028651_at) of the same compound?
**A.** The Wilcoxon was “No”.

**Q.** And the Kendall (gene Tmtc4 NM_028651_at)?
**A.** Its Kendall is “Yes”.

**Q.** And the Wilcoxon (gene Zfyve21 NM_026752_at)?
**A.** Its Wilcoxon is “No”.

**Q.** What about the Kendall (gene Zfyve21 NM_026752_at) of the same compound?
**A.** The Kendall was “Yes”.

From patent US20150307938A1, “METHOD TO IDENTIFY A NOVEL CLASS OF IMMUNOLOGIC ADJUVANTS” (Lancell, L.L.C., priority 2011, published 2015)
